According to patent US10689595B2 (THE REGENTS OF THE UNIVERSITY OF CALIFORNIA, priority 2016, dated 2020):

Columns and labels:
naïve rats = test: von Frey mechanical allodynia assay in naïve rats; assay type: in vivo, Sprague-Dawley rats; conditions: methyl esters, 1 μg intraplantar, FIG. 6A
Protocol: Male Sprague-Dawley rats weighing approximately 250-300 grams were obtained from Charles River Laboratories. On the day of the test, rats were brought to the testing apparatus and allowed to acclimate. The apparatus is a raised metal mesh platform with clear acrylic chambers to enclose rats but allow them to move freely. After 30 minutes the rats were tested with a von Frey aesthesiometer for their non-treated baseline withdrawal thresholds using a rigid tip on the plantar surface of the rat hind paw though the mesh floor. The scores are grams of force applied to the hind paw required to elicit a withdrawal. The pretreatment baseline score was considered the pain-free baseline (BL) and was assigned 100% for further response calculations.
For the pain assay, 20-HETE methyl ester, 20-HEPE methyl ester, or 22-HDoHE methyl ester, formulated in 10% EtOH in saline, were injected intraplantar in naïve rats. Withdrawal thresholds were measured at 15, 30, 60, 90, 120 and 150 minutes post injection. Reported scores are calculated as a percent of the pretreatment baseline score with an average of 6 rats (3 trials per rat) with SEM for the group.
The methyl esters compounds of 20-HETE, 20-HEPE and 22-HDoHE were tested for their ability to induce mechanical allodynia in vivo. For the assay, naïve rats were injected intraplantar with 1 μg of each ester and tested with an electronic von Frey aesthesiometer.

human COX-2 = biological target: T1, human COX-2 (Homo sapiens, UniProt P35354); test: COX Fluorescent Inhibitor Screening Assay, COX-2; assay type: biochemical; conditions: for inhibition at 100 µM: read-out: % inhibition at 100 μM COX-2, triplicate; for COX-2 activity changes: up to 100 μM concentrations
T1 construct: purchased Cayman Chemical 700100
T1 sequence (P35354 18-604): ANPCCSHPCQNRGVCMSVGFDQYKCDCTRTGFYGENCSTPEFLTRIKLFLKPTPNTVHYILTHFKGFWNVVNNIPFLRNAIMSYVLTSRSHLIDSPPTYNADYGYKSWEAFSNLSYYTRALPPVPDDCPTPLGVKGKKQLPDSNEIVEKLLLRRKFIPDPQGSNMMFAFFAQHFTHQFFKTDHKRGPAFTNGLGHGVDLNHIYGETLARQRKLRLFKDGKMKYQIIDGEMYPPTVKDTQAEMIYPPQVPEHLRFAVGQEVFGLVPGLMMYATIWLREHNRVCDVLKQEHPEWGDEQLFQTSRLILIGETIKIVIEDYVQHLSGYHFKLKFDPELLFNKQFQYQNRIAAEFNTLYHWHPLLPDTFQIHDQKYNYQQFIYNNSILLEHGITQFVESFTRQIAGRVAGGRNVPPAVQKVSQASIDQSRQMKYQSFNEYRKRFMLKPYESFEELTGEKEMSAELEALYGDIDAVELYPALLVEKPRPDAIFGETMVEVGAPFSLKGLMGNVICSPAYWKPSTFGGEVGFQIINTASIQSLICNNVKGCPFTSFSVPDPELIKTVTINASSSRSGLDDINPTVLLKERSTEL
Protocol: (§1) Briefly, to a series of supplied reaction buffer solutions (150 μl, 100 mM Tris-HCl, pH 8.0) with either COX-1 or COX-2 (10 μl) enzyme in the presence of Heme (10 μl) and fluorometric substrate (10 μl) were added 10 μl of 100 μM concentration of the test compound solutions. The reactions were initiated by adding 10 μl of ARA solution and then incubated for two minutes at room temperature. Percent inhibition was calculated by comparison from the 100% initial activity sample value (no inhibitor).

ovine COX-1 = biological target: T2, ovine COX-1 (Ovis aries, UniProt P05979); test: COX Fluorescent Inhibitor Screening Assay, COX-1; assay type: biochemical; conditions: read-out: % inhibition at 100 μM COX-1, triplicate
T2 construct: purchased Cayman Chemical 700100
T2 sequence (P05979 25-600): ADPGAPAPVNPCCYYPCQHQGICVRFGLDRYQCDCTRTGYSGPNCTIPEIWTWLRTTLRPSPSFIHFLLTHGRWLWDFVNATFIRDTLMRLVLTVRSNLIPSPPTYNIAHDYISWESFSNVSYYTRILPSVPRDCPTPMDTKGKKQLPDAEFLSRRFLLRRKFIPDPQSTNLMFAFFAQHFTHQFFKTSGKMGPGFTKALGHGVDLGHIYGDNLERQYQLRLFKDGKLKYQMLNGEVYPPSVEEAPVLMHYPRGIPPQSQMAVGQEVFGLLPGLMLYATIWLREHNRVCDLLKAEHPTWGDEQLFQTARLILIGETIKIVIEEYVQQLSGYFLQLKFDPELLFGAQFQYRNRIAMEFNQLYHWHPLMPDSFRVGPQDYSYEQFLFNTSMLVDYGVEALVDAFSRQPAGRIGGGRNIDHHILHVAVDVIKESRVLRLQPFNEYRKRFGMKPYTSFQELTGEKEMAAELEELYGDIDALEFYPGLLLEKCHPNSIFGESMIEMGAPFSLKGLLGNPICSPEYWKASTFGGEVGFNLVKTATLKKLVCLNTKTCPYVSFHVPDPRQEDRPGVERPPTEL
Protocol: as §1

mTRPV1 = biological target: T3, mTRPV1 (Mus musculus, UniProt Q704Y3); test: calcium influx assay in HEK293 cells heterologously expressing mTRPV1; assay type: cell-based; conditions: for concentration that produced significant Ca2+ influx: HEK293 cells expressing mTRPV1, fluo-4, FIG. 4; for TRPV1 channel activation: at low doses
T3 construct: GFP; expressed in transfected cells; host or cells: HEK-293 (transient transfection; plasmid a gift from Jie Zheng, UC Davis)
T3 sequence (Q704Y3 whole entry): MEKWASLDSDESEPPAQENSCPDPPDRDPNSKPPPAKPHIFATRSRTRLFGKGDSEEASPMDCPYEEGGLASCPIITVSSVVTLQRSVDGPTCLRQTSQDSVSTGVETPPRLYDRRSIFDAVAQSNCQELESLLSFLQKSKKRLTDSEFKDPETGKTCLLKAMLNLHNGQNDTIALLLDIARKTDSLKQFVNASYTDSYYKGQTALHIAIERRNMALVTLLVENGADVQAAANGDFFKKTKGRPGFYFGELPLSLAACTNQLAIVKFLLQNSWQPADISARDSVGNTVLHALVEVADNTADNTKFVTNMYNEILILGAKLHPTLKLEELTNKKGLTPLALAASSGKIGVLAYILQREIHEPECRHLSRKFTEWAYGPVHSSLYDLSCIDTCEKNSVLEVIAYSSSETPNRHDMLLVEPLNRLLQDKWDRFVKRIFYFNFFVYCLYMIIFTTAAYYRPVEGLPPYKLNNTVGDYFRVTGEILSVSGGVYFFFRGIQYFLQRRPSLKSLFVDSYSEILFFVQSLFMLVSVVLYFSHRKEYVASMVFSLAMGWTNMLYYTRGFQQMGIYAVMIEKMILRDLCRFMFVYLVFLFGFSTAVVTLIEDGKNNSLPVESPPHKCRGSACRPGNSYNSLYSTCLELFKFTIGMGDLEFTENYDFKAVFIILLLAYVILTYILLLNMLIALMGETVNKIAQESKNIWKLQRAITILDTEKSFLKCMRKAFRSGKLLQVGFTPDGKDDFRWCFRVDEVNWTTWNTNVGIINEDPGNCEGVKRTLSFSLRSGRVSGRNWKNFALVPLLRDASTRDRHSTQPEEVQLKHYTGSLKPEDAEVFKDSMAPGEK
Protocol: The mTRPV1 plasmid that contains a GFP tag was a generous gift from Professor Jie Zheng at University of California, Davis. The HEK-293 cells were cultured in a poly-D-lysine coated T75 dish at an initial density of 4×10^5 cells/dish and maintained in culture medium (DMEM+10% FBS+100 units/ml peniclillin, 0.1 mg/ml streptomycine) in an incubator at 37° C. with 5% CO2 and 95% humidity. At 50% confluence, the HEK-293 cells were transfected with 10 μg of mTRPV1 plasmid using Lipofectamine 2000 (Invitrogen Corporation, Carlsbad, Calif., USA) in antibiotic—as well as serum-free culture medium. After 6 hour incubation, the serum-free medium was replaced with normal culture medium and the cells were cultured for another 48 hours. The transfection efficiency was determined by examined the GFP expression as well as the Ca^2+ response after exposure to capsaicin.
The HEK-293 cells transiently transfected mTRPV1 were planted onto poly-D-lysine (Sigma-Aldrich, St. Louis, Mo., USA) coated black-well, clear-bottom, 96-well plates (Corning, Coring, N.Y., USA) at an initial density of 40,000/well. The cells were then cultured in DMEM medium for 18-24 hours as described previously (Ref. 38). Briefly, the growth medium was removed and replaced with dye loading buffer (100 μl/well) containing 4 μM fluo-4 and 0.5 mg/ml BSA in Locke's buffer (in mM: 8.6 HEPES, 5.6 KCl, 154 NaCl, 5.6 Glucose, 1.0 MgCl2, 2.3 CaCl2), 0.0001 glycine, pH 7.4). After 1 hour incubation in dye loading buffer, cells were washed four times in fresh Locke's buffer and transferred to the plate chamber of FLIPR^TETRA (Molecular Devices, Sunnyvale, Calif., USA). The final volume of Locke's buffer in each well was 150 μl. The cells were excited at 488 nm and Ca^2+ bound fluo-4 emission at 535 nm was recorded. Fluorescence readings were taken every 1 second for 120 s to establish the baseline. Different concentrations (4×) of compounds were added to the cells from a compound plate in a volume of 50 μl at a rate of 30 μl/s using a programmable robotic system. The fluorescence signals were recorded for an additional 380 seconds. All the experiments were performed at room temperature. The Ca^2+ data were represented as Fluo-4 fluorescence units (F/Fo). For quantifying the Ca^2+ response, the area under the curve (AUC) was used. Graphing and statistical analyses were performed using GraphPad Prism software (GraphPad Software Inc., San Diego, Calif.). Statistical significance was determined by an ANOVA and, where appropriate, a Dunnett's multiple comparison test and p values below 0.05 was considered statistically significant.
The influence of 20-HETE, 20-HEPE, and 22-HDoHe on mTRPV1 was measured in HEK293 cells heterologously expressed mTRPV1 using calcium influx assay. […] The discrepancy between previous study and current study is likely due to the fact that the mTRPV1 was used in the current study, while the hTRPV1 was used in the previous study.

hTRPV1 = hTRPV1 (Homo sapiens, UniProt Q8NER1); conditions: 10 μM, previous study (Ref 24); cited from earlier work
Chain of hTRPV1 (Q8NER1 whole entry): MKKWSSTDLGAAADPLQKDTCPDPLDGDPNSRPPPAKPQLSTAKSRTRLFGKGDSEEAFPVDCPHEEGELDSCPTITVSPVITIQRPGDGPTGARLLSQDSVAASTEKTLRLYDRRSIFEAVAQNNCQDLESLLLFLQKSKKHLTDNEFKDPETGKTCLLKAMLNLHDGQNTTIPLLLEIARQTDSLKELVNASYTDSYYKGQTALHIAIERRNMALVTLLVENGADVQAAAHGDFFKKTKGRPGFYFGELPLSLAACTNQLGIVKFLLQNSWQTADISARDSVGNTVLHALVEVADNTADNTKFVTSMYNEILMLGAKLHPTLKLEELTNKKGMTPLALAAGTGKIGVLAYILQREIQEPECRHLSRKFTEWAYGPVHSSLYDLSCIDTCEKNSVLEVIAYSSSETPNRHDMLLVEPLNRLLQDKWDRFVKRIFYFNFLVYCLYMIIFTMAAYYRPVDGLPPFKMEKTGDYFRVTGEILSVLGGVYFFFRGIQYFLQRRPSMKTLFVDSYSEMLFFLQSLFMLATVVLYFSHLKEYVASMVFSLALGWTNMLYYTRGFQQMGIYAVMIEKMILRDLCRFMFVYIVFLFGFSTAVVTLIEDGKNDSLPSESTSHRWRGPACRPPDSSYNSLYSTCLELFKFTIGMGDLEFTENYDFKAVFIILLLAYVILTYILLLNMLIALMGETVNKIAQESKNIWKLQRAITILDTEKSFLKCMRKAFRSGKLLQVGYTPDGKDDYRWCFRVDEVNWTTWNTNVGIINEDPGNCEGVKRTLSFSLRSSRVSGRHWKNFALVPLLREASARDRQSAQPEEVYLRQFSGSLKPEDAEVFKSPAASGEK

B16F10 melanoma = B16F10 melanoma primary tumor growth model; assay type: in vivo; conditions: 0.5 mg/kg/day by mini-pumps, 2-wk treatment, C57BL/6 mice
Protocol: FIG. 9 is a photograph and a bar graph showing systematic treatment of 0.5 mg/kg/day 22-HDoHE inhibited ˜50% of B16F10 melanoma growth in C57BL/6 male mice. B16F10 melanoma cells (200,000 cells per mouse) were sub-Q injected into C57BL/6 mice to induce primary tumor growth of melanoma, then the mice were treated with 22-HDoHE using mini-pumps at a dose of 0.5 mg/kg/day. After 2-wk treatment, the mice were sacrificed to dissect the tumors for analysis.
Angiogenesis has been well established to play an essential role in cancer, through providing nutrients and oxygen to the tumors tissues to promote tumor progression. The effect of 22HDoHE on primary tumor growth in mice was studied using a highly aggressive B16F10 melanoma model in C57BL/6 mice.

HMVEC-dLy = test: complete medium-induced HMVEC-dLy migration, Boyden chamber assay; assay type: cell-based, human; conditions: FIG. 11
[1] = system: human umbilical vein endothelial cells (HUVECs); test: VEGF-induced endothelial cell migration (Boyden chamber); assay type: cell-based; conditions: dose range of 1-3 μM, 10 ng/mL VEGF, 6 hours
Protocol: FIG. 8 is a series of photographs showing 22-HDoHE inhibition of VEGF-induced endothelial cell migration in HUVEC cells. The cell migration assay was conducted using a standard Boyden chamber assay with 10 ng/mL VEGF as chemoattractant, and the assay time was 6 hours.
It was tested whether 22-HDoHE has direct anti-angiogenic actions in primary endothelial cells, using a VEGF-induced endothelial cell migration in human umbilical vein endothelial cells (HUVECs).

[2] = system: VEGF-induced angiogenesis; test: Matrigel plug angiogenesis assay; assay type: in vivo; conditions: co-addition in Matrigel with 100 ng VEGF, C57BL/6 mice
Protocol: FIG. 7A is a simplified scheme of the animal experiment: Matrigel containing VEGF (angiogenesis inducer) and 22-HDoHE or vehicle were injected into C57BL/6 mice, after 4-7 days of treatment, the Matrigel plugs were dissected and subjected to angiogenesis analysis.
Angiogenesis, the process of formation of new blood vessels from pre-existing vessels, has been established to be critical for multiple human diseases including cancer. Vascular endothelial growth factor (VEGF) is the most important angiogenesis inducer.

[3] = system: human dermal lymphatic endothelial cells (HMVEC-dLy); test: VEGF-C-induced tube formation; assay type: cell-based; conditions: dose-dependent manner, FIG. 10
Protocol: The effect of 22-HDoHE on lymphangiogenesis was evaluated using a vascular endothelial growth factor-C (VEGF-C)-induced tube formation in human dermal lymphatic endothelial cells (HMVEC-dLy).

COC(=O)CCC/C=C\C/C=C\C/C=C\C/C=C\C/C=C\CCO
nociceptive (withdrawal) thresholds, von Frey (naïve rats): neither 20-HEPE nor 22-HDoHE induced a similar decrease in thresholds

COC(=O)CCC/C=C\C/C=C\C/C=C\C/C=C\CCCCCO
nociceptive (withdrawal) thresholds, von Frey (naïve rats): decreased nociceptive thresholds acutely

O=C(O)CCC/C=C\C/C=C\C/C=C\C/C=C\C/C=C\CCO [20-HEPE, (5Z,8Z,11Z,14Z,17Z)-20-Hydroxyicosa-5,8,11,14,17-pentaenoic Acid]
inhibition at 100 µM (human COX-2): 0%
COX-2 activity changes (human COX-2; FIG. 5): No COX-2 activity changes
inhibition at 100 µM (ovine COX-1): 37.1%
concentration that produced significant Ca2+ influx (mTRPV1): 10 µM
TRPV1 channel activation (mTRPV1): did not activate TRPV1 channels

O=C(O)CCC/C=C\C/C=C\C/C=C\C/C=C\CCCCCO [20-HETE, (5Z,8Z,11Z,14Z)-20-Hydroxyicosa-5,8,11,14-tetraenoic Acid]
inhibition at 100 µM (human COX-2): 0%
COX-2 activity changes (human COX-2; FIG. 5): No COX-2 activity changes
inhibition at 100 µM (ovine COX-1): 27.5%
hTRPV1 activation (hTRPV1): activates hTRPV1
mTRPV1 activation (mTRPV1; at or below concentration of 10 uM): does not appear to be an mTRPV1 activator
Ca2+ response (mTRPV1; at the concentrations examined, FIG. 4): marginal Ca^2+ response

O=C(O)CC/C=C\C/C=C\C/C=C\C/C=C\C/C=C\C/C=C\CCO [22-HDoHE, (4Z,7Z,10Z,13Z,16Z,19Z)-22-Hydroxydocosa-4,7,10,13,16,19-hexaenoic Acid]
reduction of B16F10 tumor growth (B16F10 melanoma): ~50%
complete medium-induced HMVEC-dLy migration (HMVEC-dLy): significantly inhibit
inhibition at 100 µM (human COX-2): 1%
COX-2 activity changes (human COX-2; FIG. 5): No COX-2 activity changes
VEGF-induced HUVECs migration [1]: significantly inhibited
inhibition at 100 µM (ovine COX-1): 38.1%
concentration that produced significant Ca2+ influx (mTRPV1): ~3 µM
TRPV1 channel activation (mTRPV1): did not activate TRPV1 channels
VEGF-induced angiogenesis in Matrigel plugs [2]: almost abolished VEGF-induced angiogenesis
VEGF-C-induced tube formation in HMVEC-dLy cells [3]: significantly inhibited

COC(=O)CC/C=C\C/C=C\C/C=C\C/C=C\C/C=C\C/C=C\CCO [22-HDoHE]
nociceptive (withdrawal) thresholds, von Frey (naïve rats): neither 20-HEPE nor 22-HDoHE induced a similar decrease in thresholds

CC/C=C\C/C=C\C/C=C\C/C=C\C/C=C\CCCC(=O)O [EPA, eicosapentaenoic acid, reference compound]
COX inhibitory activity (% inhibition), COX-2 (human COX-2; FIG. 5): Less than 0%
